Measured values from EPA's ToxRefDB 2.

Tests used:
dog [1] = conditions: Sub-acute repeat dose toxicity; beagle; Oral; Gavage/Intubation; dose end: 4 day; group: systemic; systemic / clinical chemistry / [other] / [other] + systemic / clinical chemistry / apolipoprotein a1 / apolipoprotein a1 + systemic / …
primate [2] = conditions: Sub-acute repeat dose toxicity, marmoset, Oral, Gavage/Intubation, dose end: 4 day, group: systemic
rabbit [3] = conditions: Sub-acute repeat dose toxicity, Oral, Gavage/Intubation, dose end: 5 day, group: systemic
primate [4] = conditions: Subchronic oral toxicity in nonrodent, Gavage/Intubation, dose end: 91 day, group: systemic, systemic / in life observation / clinical signs / emesis
dog [5] = conditions: Sub-acute repeat dose toxicity; beagle; Oral; Gavage/Intubation; dose end: 4 day; group: systemic; systemic / in life observation / clinical signs / erythema + systemic / in life observation / clinical signs / reduced activity + systemic…
rat [6] = conditions: Sub-acute repeat dose toxicity; Oral; Gavage/Intubation; dose end: 5 day; group: systemic; systemic / in life observation / clinical signs / arrhythmia + systemic / in life observation / clinical signs / dehydration + systemic / in…
rat [7] = conditions: Subchronic oral toxicity in rodents, wistar, Gavage/Intubation, dose end: 91 day, group: systemic
rat [8] = conditions: Sub-acute repeat dose toxicity, wistar, Oral, Gavage/Intubation, dose end: 14 day, group: systemic
dog [9] = conditions: Chronic toxicity; beagle; Oral; Gavage/Intubation; dose end: 364 day; group: systemic; systemic / organ weight / liver / absolute + systemic / pathology microscopic / testes / cellular alteration + systemic / pathology …
rat [10] = conditions: Fertility (Segment I); Oral; Gavage/Intubation; dose end: 1 generation; group: parental; systemic / in life observation / clinical signs / alopecia + systemic / in life observation / clinical signs / respiration (rales) + …
rat [11] = conditions: Chronic toxicity, wistar, Oral, Feed, dose end: 182 day, group: systemic
dog [12] = conditions: Chronic toxicity; beagle; Oral; Gavage/Intubation; dose end: 364 day; group: systemic; systemic / organ weight / liver / absolute + systemic / pathology microscopic / testes / cellular alteration + systemic / pathology …; remark: listed apart in the source
rat [13] = conditions: Prenatal developmental toxicity study, Oral, Gavage/Intubation, dose end: 18 GD
dog [14] = conditions: Sub-acute repeat dose toxicity, beagle, Oral, Gavage/Intubation, dose end: 14 day, group: systemic
rabbit [15] = conditions: Prenatal developmental toxicity study, Oral, Gavage/Intubation, dose end: 19 GD
rat [16] = conditions: Sub-acute repeat dose toxicity; wistar; Oral; Feed; dose end: 14 day; group: systemic; systemic / hematology / leukocyte (wbc) count differential / leukocyte (wbc) + systemic / hematology / lymphocyte / lymphocyte + systemic / …
rat [17] = conditions: Fertility (Segment I), Oral, Gavage/Intubation, dose end: 1 generation, group: parental
rat [18] = conditions: Chronic toxicity, Oral, Feed, dose end: 182 day, group: systemic
rat [19] = conditions: Prenatal developmental toxicity study, Oral, Gavage/Intubation, dose end: 15 GD, group: maternal
dog [20] = conditions: Subchronic oral toxicity in nonrodent, beagle, Feed, dose end: 90 day, group: cholinesterase, cholinesterase / cholinesterase / cholinesterase / plasma cholinesterase (che)
mouse = conditions: Carcinogenicity; cd1; Oral; Feed; dose end: 97 week; group: cholinesterase; cholinesterase / cholinesterase / cholinesterase / erythrocyte cholinesterase (che) + cholinesterase / cholinesterase / cholinesterase / …
rat [21] = conditions: Combined chronic toxicity/carcinogenicity; fischer; Oral; Feed; dose end: 105 week; group: cholinesterase; cholinesterase / cholinesterase / cholinesterase / erythrocyte cholinesterase (che) + cholinesterase / cholinesterase / cholinesterase / …
dog [22] = conditions: Subchronic oral toxicity in nonrodent, beagle, Feed, dose end: 26 week
rat [23] = conditions: Multigenerational reproductive toxicity study, Crl: CD(SD) BRVAF/Plus, Oral, [Not Specified], dose end: 2 generation
[24] = systemic / in life observation / clinical signs / defecation (diarrhea) + systemic / pathology microscopic / salivary glands / degeneration…
[25] = systemic / pathology microscopic / salivary glands / degeneration + systemic / hematology / fibrinogen / fibrinogen + systemic / pathology …
[26] = systemic / in life observation / body weight / body weight + systemic / in life observation / clinical signs / abnormal respiratory sounds…
[27] = systemic / in life observation / clinical signs / nasal discharge + systemic / in life observation / food consumption / food consumption
[28] = systemic / in life observation / body weight / body weight + systemic / in life observation / clinical signs / abnormal feces + systemic / …
[29] = systemic / pathology microscopic / intestine large / hyperplasia + systemic / pathology microscopic / stomach / hyperplasia
[30] = systemic / clinical chemistry / cytochrome p450, nos / cytochrome p450, nos
[31] = systemic / clinical chemistry / cytochrome p450, nos / cytochrome p450, nos + systemic / clinical chemistry / urea nitrogen / urea nitrogen…
[32] = systemic / pathology gross / full gross necropsy / rhabdomyosarcoma + systemic / clinical chemistry / albumin-globulin ratio / albumin-…
[33] = systemic / pathology gross / uterus / cyst + systemic / pathology microscopic / uterus / cyst + systemic / organ weight / testes / absolute…
[34] = group: developmental, developmental / developmental malformation / bone / [other] + developmental / developmental malformation / bone / delayed ossification + …
[35] = group: maternal, systemic / in life observation / body weight / body weight + systemic / in life observation / body weight / body weight gain + systemic / in…
[36] = systemic / clinical chemistry / [other] / [other] + systemic / clinical chemistry / alanine aminotransferase (alt/sgpt) / alanine …
[37] = group: developmental, systemic / in life observation / body weight / fetal weight
[38] = group: maternal, systemic / in life observation / body weight / body weight
[39] = systemic / in life observation / body weight / body weight gain + systemic / in life observation / clinical signs / abnormal feces + …
[40] = systemic / pathology microscopic / testes / dilatation
[41] = systemic / clinical chemistry / albumin-globulin ratio / albumin-globulin ratio + systemic / clinical chemistry / glucose / glucose + …
[42] = systemic / in life observation / body weight / body weight + systemic / in life observation / food consumption / food consumption
[43] = group: cholinesterase, cholinesterase / cholinesterase / cholinesterase / plasma cholinesterase (che) + cholinesterase / cholinesterase / cholinesterase / …
[44] = group: systemic, systemic / hematology / erythrocyte (rbc) count differential / erythrocyte (rbc) + systemic / hematology / hemoglobin (hgb) / hemoglobin (…
[45] = group: offspring, systemic / in life observation / body weight / offspring (pup) weight + systemic / in life observation / body weight / offspring (pup) …
[46] = group: parental, systemic / in life observation / body weight / body weight + systemic / in life observation / body weight / body weight gain + systemic / in…
[47] = group: reproductive, reproductive / reproductive performance / implantations / implantations

With Nc1cc2c3c(c1)C(c1ccccc1)=N[C@@H](NC(=O)c1cccnc1)C(=O)N3CC2 [CI-1044] the LEL (dog [1]) was 20 mg/kg/day, the LOAEL (dog [1]) was over 20 mg/kg/day and the NEL (dog [1]) was under 20 mg/kg/day. For the same compound, the NOAEL (dog [1]) was at least 20 mg/kg/day, the LOAEL (primate [2]; [24]) was over 320 mg/kg/day and the NOAEL (primate [2]; [24]) was at least 320 mg/kg/day. The LEL (primate [2]; [25]) was 80 mg/kg/day, the NEL (primate [2]; [25]) was under 80 mg/kg/day and the LOAEL (rabbit [3]; [26]) was over 1000 mg/kg/day. For the same compound, the NOAEL (rabbit [3]; [26]) was at least 1000 mg/kg/day, the LEL (rabbit [3]; [27]) was 50 mg/kg/day and the NEL (rabbit [3]; [27]) was under 50 mg/kg/day. For the same compound, the LEL (primate [4]) was 1 mg/kg/day, the LOAEL (primate [4]) was over 15 mg/kg/day and the NEL (primate [4]) was under 1 mg/kg/day. For the same compound, the NOAEL (primate [4]) was at least 15 mg/kg/day, the LEL (dog [5]) was 50 mg/kg/day and the LOAEL (dog [5]) was over 50 mg/kg/day. For the same compound, the NEL (dog [5]) was under 50 mg/kg/day, the NOAEL (dog [5]) was at least 50 mg/kg/day and the LOAEL (rat [6]) was over 50 mg/kg/day. The NEL (rat [6]) was 10 mg/kg/day, the NOAEL (rat [6]) was at least 50 mg/kg/day and the LOAEL (rat [7]; [28]) was over 25 mg/kg/day. It also gave an NOAEL (rat [7]; [28]) of at least 25 mg/kg/day, an LEL (rat [7]; [29]) of 3 mg/kg/day and an NEL (rat [7]; [29]) of under 3 mg/kg/day.
CCc1cc(C2=C(C(=O)O)N(c3ccccc3C(F)(F)F)S(=O)(=O)c3ccccc32)cc2c1OCO2 [Fandosentan] showed an LEL (rat [8]; [30]) of 100 mg/kg/day, an NEL (rat [8]; [30]) of under 100 mg/kg/day and an LOAEL (rat [8]; [31]) of over 500 mg/kg/day. It also gave an NOAEL (rat [8]; [31]) of at least 500 mg/kg/day, an LEL (dog [9]) of 10 mg/kg/day and an LOAEL (dog [9]) of over 100 mg/kg/day. For the same compound, the NEL (dog [9]) was under 10 mg/kg/day, the NOAEL (dog [9]) was at least 100 mg/kg/day and the LEL (rat [10]) was 25 mg/kg/day. For the same compound, the LOAEL (rat [10]) was over 250 mg/kg/day, the NEL (rat [10]) was under 25 mg/kg/day and the NOAEL (rat [10]) was at least 250 mg/kg/day. For the same compound, the LOAEL (rat [11]; [32]) was over 300 mg/kg/day, the NOAEL (rat [11]; [32]) was at least 300 mg/kg/day and the LEL (rat [11]; [33]) was 75 mg/kg/day. It also gave an NEL (rat [11]; [33]) of under 75 mg/kg/day, an LEL (dog [12]) of 10 mg/kg/day and an LOAEL (dog [12]) of over 100 mg/kg/day. For the same compound, the NEL (dog [12]) was under 10 mg/kg/day, the NOAEL (dog [12]) was at least 100 mg/kg/day and the LOAEL (rat [13]; [34]) was over 250 mg/kg/day. For the same compound, the NOAEL (rat [13]; [34]) was at least 250 mg/kg/day, the LEL (rat [13]; group: developmental, developmental / developmental malformation / bone / [other] + developmental / developmental malformation / face / [other] + developmental / …) was 100 mg/kg/day and the LEL (rat [13]; [35]) was 250 mg/kg/day. The LOAEL (rat [13]; [35]) was over 250 mg/kg/day, the NOAEL (rat [13]; [35]) was at least 250 mg/kg/day and the LOAEL (dog [14]; [36]) was over 200 mg/kg/day. For the same compound, the NOAEL (dog [14]; [36]) was at least 200 mg/kg/day, the LEL (dog [14]; systemic / in life observation / clinical signs / defecation (diarrhea) + systemic / clinical chemistry / [other] / [other] + systemic / …) was 30 mg/kg/day and the LEL (rabbit [15]; [37]) was 50 mg/kg/day. It also gave an LOAEL (rabbit [15]; [37]) of over 50 mg/kg/day, an NOAEL (rabbit [15]; [37]) of at least 50 mg/kg/day and an LEL (rabbit [15]; [38]) of 50 mg/kg/day. It also gave an LOAEL (rabbit [15]; [38]) of over 50 mg/kg/day, an NEL (rabbit [15]; [38]) of 25 mg/kg/day and an NOAEL (rabbit [15]; [38]) of at least 50 mg/kg/day. The LEL (rat [16]) was 100 mg/kg/day, the LOAEL (rat [16]) was over 750 mg/kg/day and the NEL (rat [16]) was under 100 mg/kg/day. For the same compound, the NOAEL (rat [16]) was at least 750 mg/kg/day, the LOAEL (rat [17]; [39]) was over 250 mg/kg/day and the NOAEL (rat [17]; [39]) was at least 250 mg/kg/day. It also gave an LEL (rat [17]; [40]) of 25 mg/kg/day, an NEL (rat [17]; [40]) of under 25 mg/kg/day and an LOAEL (rat [18]; [41]) of over 300 mg/kg/day. The NOAEL (rat [18]; [41]) was at least 300 mg/kg/day, the LEL (rat [18]; [33]) was 75 mg/kg/day and the NEL (rat [18]; [33]) was under 75 mg/kg/day.
In the case of CCCSP(=O)(OCC)Oc1ccc(Br)cc1Cl (stereo unspecified) [Profenofos], the LOAEL (rat [19]; [42]) is reported as 60 mg/kg/day, the NEL (rat [19]; [42]) is reported as 10 mg/kg/day and the NOAEL (rat [19]; [42]) is reported as 30 mg/kg/day. For the same compound, the LEL (rat [19]; systemic / in life observation / food consumption / food consumption) was 30 mg/kg/day, the LEL (dog [20]) was 0.05 mg/kg/day and the LOAEL (dog [20]) was 0.05 mg/kg/day. For the same compound, the NEL (dog [20]) was under 0.05 mg/kg/day, the NOAEL (dog [20]) was under 0.05 mg/kg/day and the LEL (mouse) was 4.54 mg/kg/day. It also gave an LOAEL (mouse) of 4.54 mg/kg/day, an NEL (mouse) of 0.14 mg/kg/day and an NOAEL (mouse) of 0.14 mg/kg/day. It also gave an LEL (rat [21]) of 1 mg/kg/day, an LOAEL (rat [21]) of 1 mg/kg/day and an NEL (rat [21]) of 0.03 mg/kg/day. The NOAEL (rat [21]) was 0.03 mg/kg/day, the NOAEL (dog [22]; group: cholinesterase, cholinesterase / cholinesterase / cholinesterase / plasma cholinesterase (che) + cholinesterase / cholinesterase / cholinesterase / brain …) was 0.005 mg/kg/day and the LEL (dog [22]; [43]) was 0.005 mg/kg/day. It also gave an LOAEL (dog [22]; [43]) of 0.05 mg/kg/day, an NEL (dog [22]; [43]) of under 0.005 mg/kg/day and an LEL (dog [22]; [44]) of 12.5 mg/kg/day. For the same compound, the LOAEL (dog [22]; [44]) was over 12.5 mg/kg/day, the NEL (dog [22]; [44]) was 2.5 mg/kg/day and the NOAEL (dog [22]; [44]) was at least 12.5 mg/kg/day. For the same compound, the LEL (rat [23]; [45]) was 29 mg/kg/day, the LOAEL (rat [23]; [45]) was 29 mg/kg/day and the NEL (rat [23]; [45]) was 7.3 mg/kg/day. For the same compound, the NOAEL (rat [23]; [45]) was 7.3 mg/kg/day, the LEL (rat [23]; [46]) was 29 mg/kg/day and the LOAEL (rat [23]; [46]) was 29 mg/kg/day. It also gave an NEL (rat [23]; [46]) of 7.3 mg/kg/day, an NOAEL (rat [23]; [46]) of 7.3 mg/kg/day and an LEL (rat [23]; [47]) of 29 mg/kg/day. The LOAEL (rat [23]; [47]) was over 29 mg/kg/day, the NEL (rat [23]; [47]) was 7.3 mg/kg/day and the NOAEL (rat [23]; [47]) was at least 29 mg/kg/day.
